From PubChem BioAssay (NCI)
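Growth conditions: 96-well plates. Treatment: test compound, 48 hours, 5 concentrations. Analysis: linear interpolation between bracketing concentrations; unreached endpoints set to highest concentration. TGI: total growth inhibition.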

Key:
Test in all cases: NCI anticancer screen, dose series, 48 h
[1] = test system: UACC-62 melanoma
[2] = test system: UO-31 renal
[3] = test system: MCF7 breast
[4] = test system: HS 578T breast
[5] = test system: LOX IMVI melanoma
[6] = test system: NCI-H522 lung
[7] = test system: SN12C renal
[8] = test system: NCI/ADR-RES ovarian
[9] = test system: SK-MEL-28 melanoma
[10] = test system: NCI-H460 lung
[11] = test system: EKVX NSCLC
[12] = test system: HCT-15 colon
[13] = test system: HCT-116 colon
[14] = test system: HOP-92 NSCLC
[15] = test system: MDA-MB-435
[16] = test system: SF-268 CNS
[17] = test system: DU-145 prostate
[18] = test system: MDA-N
[19] = test system: M14 melanoma
[20] = test system: ACHN renal
[21] = test system: SNB-19 CNS
[22] = test system: HOP-62 NSCLC
[23] = test system: IGROV1 ovarian
[24] = test system: SF-539 CNS
[25] = test system: KM12 colon
[26] = test system: SK-OV-3 ovarian
[27] = test system: MALME-3M melanoma
[28] = test system: CAKI-1 renal
[29] = test system: NCI-H226 lung
[30] = test system: SW-620 colon
[31] = test system: PC-3 prostate
[32] = test system: A549 NSCLC
[33] = test system: SNB-75 CNS
[34] = test system: HT29 colon
[35] = test system: MDA-MB-231 breast
[36] = test system: OVCAR-4 ovarian
[37] = test system: TK-10 renal
[38] = test system: T-47D breast
[39] = test system: SK-MEL-2 melanoma
[40] = test system: NCI-H23 lung
[41] = test system: OVCAR-5 ovarian
[42] = test system: SF-295 CNS
[43] = test system: HCC-2998 colon
[44] = test system: UACC-257 melanoma
[45] = test system: HL-60(TB) leukemia
[46] = test system: MOLT-4 leukemia
[47] = test system: COLO 205 colon
[48] = test system: BT-549 breast
[49] = test system: OVCAR-8 ovarian
[50] = test system: K-562 leukemia
[51] = test system: 786-0 renal
[52] = test system: A498 renal
[53] = test system: SK-MEL-5 melanoma
[54] = test system: RPMI-8226 leukemia
[55] = test system: U251 CNS
[56] = test system: CCRF-CEM leukemia
[57] = test system: RXF 393 renal

O=C1CC(Cl)c2c(Cl)sc(Cl)c21 (stereo not drawn)
TGI [1]: 4.66 µM
TGI [2]: 3.67 µM
TGI [3]: 2110 nM
TGI [4]: > 27.9 µM
TGI [5]: 3.15 µM
TGI [6]: 4.51 µM
TGI [7]: 3.15 µM
TGI [8]: > 28.5 µM
TGI [9]: 4.58 µM
TGI [10]: 40 µM
TGI [11]: 16.4 µM
TGI [12]: 5.07 µM
TGI [13]: 3.12 µM
TGI [14]: 3.44 µM
TGI [15]: 6.34 µM
TGI [16]: 5.51 µM
TGI [17]: 7.13 µM
TGI [18]: 5.94 µM
TGI [19]: 3.94 µM
TGI [20]: 3.45 µM
TGI [21]: 24 µM
TGI [22]: 18.6 µM
TGI [23]: 5.09 µM
TGI [24]: 8.32 µM
TGI [25]: 4.03 µM
TGI [26]: 33.3 µM
TGI [27]: 6.63 µM
TGI [28]: 3.18 µM
TGI [29]: 28.8 µM
TGI [30]: 3.61 µM
TGI [31]: 5.64 µM
TGI [32]: 12.7 µM
TGI [33]: 22.8 µM
TGI [34]: 5.93 µM
TGI [35]: > 25.7 µM
TGI [36]: 10.3 µM
TGI [37]: 4.51 µM
TGI [38]: > 22 µM
TGI [39]: > 25.5 µM
TGI [40]: 9.32 µM
TGI [41]: 34.7 µM
TGI [42]: 31.7 µM
TGI [43]: 5.54 µM
TGI [44]: 9.25 µM
TGI [45]: 3.23 µM
TGI [46]: 2370 nM
TGI [47]: 3.7 µM
TGI [48]: 13.3 µM
TGI [49]: 3.32 µM
TGI [50]: > 100 µM
TGI [51]: 2820 nM
TGI [52]: 27.3 µM
TGI [53]: 26.2 µM

CC1=CC(=O)/C(=C/N2CCNC2=S)C(=O)O1
TGI [1]: > 100 µM
TGI [2]: > 100 µM
TGI [3]: > 100000 nM
TGI [4]: > 100 µM
TGI [5]: > 100 µM
TGI [6]: > 100 µM
TGI [7]: > 100 µM
TGI [8]: > 100 µM
TGI [10]: > 100 µM
TGI [54]: > 100 µM
TGI [11]: > 100 µM
TGI [12]: > 100 µM
TGI [13]: > 100 µM
TGI [14]: > 100 µM
TGI [15]: > 100 µM
TGI [16]: > 100 µM
TGI [17]: > 100 µM
TGI [18]: > 100 µM
TGI [19]: > 100 µM
TGI [55]: > 100 µM
TGI [20]: > 100 µM
TGI [21]: > 100 µM
TGI [22]: > 100 µM
TGI [23]: > 100 µM
TGI [24]: > 100 µM
TGI [25]: > 100 µM
TGI [26]: > 100 µM
TGI [28]: > 100 µM
TGI [29]: > 100 µM
TGI [30]: > 100 µM
TGI [31]: > 100 µM
TGI [32]: > 100 µM
TGI [33]: > 100 µM
TGI [34]: > 100 µM
TGI [35]: > 100 µM
TGI [36]: > 100 µM
TGI [37]: > 100 µM
TGI [38]: > 100 µM
TGI [39]: > 100 µM
TGI [40]: > 100 µM
TGI [41]: > 100 µM
TGI [56]: > 100 µM
TGI [42]: > 100 µM
TGI [43]: > 100 µM
TGI [44]: > 100 µM
TGI [45]: > 100 µM
TGI [46]: > 100000 nM
TGI [47]: > 100 µM
TGI [48]: > 100 µM
TGI [49]: > 100 µM
TGI [57]: > 100 µM
TGI [50]: > 100 µM
TGI [51]: > 100000 nM
TGI [52]: > 100 µM
TGI [53]: > 100 µM
